Experimental data from ChEMBL document CHEMBL5370643, “Discovery of MK-1468: A Potent, Kinome-Selective, Brain-Penetrant Amidoisoquinoline LRRK2 Inhibitor for the Potential Treatment of Parkinson's Disease” (J Med Chem, 2023).
Values after ≈ are worked out from the molar mass of the structure shown.

Legend:
[1] = Oral bioavailability in Beagle dog at 5 mg/kg measured after 24 hrs by LC-MS/MS analysis; format: ADME, organism-based, Canis lupus familiaris; conditions: in vivo
[2] = Toxicity in Wistar-Han rat assessed as erosion of nonglandular stomach at 750 mg/kg, po administered once daily for 7 days; format: organism-based; conditions: in vivo, 168 h, time 7 day
[3] = Toxicity in Wistar-Han rat assessed as effect on diastolic blood pressure at 60 mg/kg, po administered as single dose and measured upto 24 hrs by telemetric analysis; format: organism-based; conditions: in vivo
[4] = Toxicity in Wistar-Han rat assessed as effect on arterial pulse pressure at 60 mg/kg, po administered as single dose and measured upto 24 hrs by telemetric analysis; format: organism-based; conditions: in vivo
[5] = Kinetic solubility of compound in FaSSIF at pH 6.5 measured after 24 hrs by UPLC/DAD analysis; format: physicochemical; conditions: read-out: Kinetic_solubility
Nav1.5 = Nav1.5 (Homo sapiens, UniProt Q14524); experiment: Inhibition of human Nav1.5 expressed in HEK293 cells at 30 uM by QPatch voltage clamp assay relative to control; format: cell-based; conditions: HEK293 cells expressing human Nav1.5
[6] = Total clearance in Beagle dog at 0.5 mg/kg, iv measured after 24 hrs by LC-MS/MS analysis; format: ADME, organism-based, Canis lupus familiaris; conditions: in vivo
[7] = Total clearance in rhesus monkey at 3 mg/kg, iv measured after 24 hrs by LC-MS/MS analysis; format: ADME, organism-based, Macaca mulatta; conditions: in vivo
[8] = Intrinsic clearance in Beagle dog at 0.5 mg/kg, iv measured after 24 hrs by LC-MS/MS analysis; format: ADME, organism-based, Canis lupus familiaris; conditions: in vivo
[9] = Toxicity in Wistar-Han rat assessed as effect on spontaneous locomotor activity at 60 mg/kg, po administered as single dose and measured upto 24 hrs by telemetric analysis; format: organism-based; conditions: in vivo
[10] = Unbound brain-to-plasma concentration ratio in iv dosed Wistar-Han rat administered as cassette dose by LC-MS/MS analysis; format: ADME, organism-based; conditions: read-out: K(p,uu,brain)
[11] = Mutagenicity in Salmonella typhimurium TA1535 at 30 to 5000 ug/plate incubated for 48 hrs in absence of Wistar-Han rat S9 fraction by Ames test; format: toxicity; conditions: salmonella enterica subsp. enterica serovar typhimurium, s9, 48 h
[12] = Toxicity in Wistar-Han rat assessed as squamous hyperplasia of nonglandular stomach at 750 mg/kg, po administered once daily for 7 days; format: organism-based; conditions: in vivo, 168 h, time 7 day
[13] = Toxicity in Wistar-Han rat assessed as effect on mean blood pressure at 60 mg/kg, po administered as single dose and measured upto 24 hrs by telemetric analysis; format: organism-based; conditions: in vivo
[14] = Toxicity in rhesus monkey assessed as tolerance at 100 to 800 mg/kg, po administered once daily for 7 days; format: organism-based, Macaca mulatta; conditions: in vivo, 168 h, dose 100-800 mg/kg, time 7 day
[15] = Toxicity in rhesus monkey assessed as clinical observation at 100 to 800 mg/kg, po administered once daily for 7 days; format: organism-based, Macaca mulatta; conditions: in vivo, 168 h, dose 100-800 mg/kg, time 7 day
Rattus norvegicus = experiment: In vivo inhibition of LRRK2 in po dosed Wistar-Han rat assessed as reduction in Ser935 phosphorylation in stratium measured after 2 hrs; format: functional, organism-based; conditions: dose 1-100 mg/kg
[16] = molecular target: Voltage-gated inwardly rectifying potassium channel KCNH2 (Homo sapiens, UniProt Q12809); experiment: Inhibition of hERG expressed in CHO cells by QPatch voltage clamp assay
[17] = Total clearance in Wistar-Han rat at 3 mg/kg, iv measured after 24 hrs by LC-MS/MS analysis; format: ADME, organism-based; conditions: in vivo
[18] = Cardiotoxicity in guinea pig assessed as effect on heart rate at 5 to 20 mg/kg, iv administered continuously for 20 min by ECG analysis; format: toxicity, organism-based, Cavia porcellus; conditions: in vivo, dose 5-20 mg/kg
[19] = Toxicity in Wistar-Han rat assessed as effect on heart rate at 225 mg/kg, po administered as single dose and measured after 5 to 8 hrs by telemetric analysis; format: organism-based; conditions: in vivo, time 5-8 hrs
[20] = Oral bioavailability in rhesus monkey at 10 mg/kg measured after 24 hrs by LC-MS/MS analysis; format: ADME, organism-based, Macaca mulatta; conditions: in vivo
[21] = AUC in Wistar-Han rat at 40 mg/kg, po administered once daily for 7 days; format: ADME, organism-based; parameters: dose 40 mg/kg, time 7 day, route po; conditions: in vivo
[22] = Toxicity in Wistar-Han rat assessed as micronucleus induction in bone marrow at 40 to 750 mg/kg, po administered once daily for 7 days by micronucleus test; format: organism-based; conditions: in vivo, 168 h, dose 40-750 mg/kg, time 7 day
[23] = Toxicity in Wistar-Han rat assessed as effect on systolic blood pressure at 60 mg/kg, po administered as single dose and measured upto 24 hrs by telemetric analysis; format: organism-based; conditions: in vivo
[24] = Cardiotoxicity in guinea pig assessed as effect on QRS interval at 5 to 20 mg/kg, iv administered continuously for 20 min by ECG analysis; format: toxicity, organism-based, Cavia porcellus; conditions: in vivo, dose 5-20 mg/kg
[25] = Mutagenicity in Salmonella typhimurium TA100 at 30 to 5000 ug/plate incubated for 48 hrs in absence of Wistar-Han rat S9 fraction by Ames test; format: toxicity; conditions: salmonella enterica subsp. enterica serovar typhimurium, s9, 48 h
[26] = Toxicity in Wistar-Han rat assessed as body weight loss at 750 mg/kg, po administered once daily for 7 days; format: organism-based; conditions: in vivo, 168 h, time 7 day
[27] = Cardiotoxicity in iv dose guinea pig assessed as increase in QTc interval at high dose administered continuously for 20 min by ECG analysis; format: toxicity, organism-based, Cavia porcellus; conditions: in vivo
[28] = Toxicity in Wistar-Han rat assessed as NOAEL measured after 7 days; conditions: in vivo, time 7 day
[29] = Protein binding in dog plasma incubated for 4 hrs by equilibrium dialysis method; format: ADME, cell-free, Canis lupus familiaris; conditions: read-out: PPB (converted)
[30] = Mutagenicity in Salmonella typhimurium TA98 at 30 to 5000 ug/plate incubated for 48 hrs in presence of Wistar-Han rat S9 fraction by Ames test; format: toxicity, subcellular; conditions: salmonella enterica subsp. enterica serovar typhimurium, s9, 48 h
[31] = Toxicity in Wistar-Han rat assessed as effect on heart rate at 60 mg/kg, po administered as single dose and measured upto 24 hrs by telemetric analysis; format: organism-based; conditions: in vivo
[32] = AUC in Wistar-Han rat at 225 mg/kg, po administered once daily for 7 days; format: ADME, organism-based; parameters: time 7 day, dose 225 mg/kg, route po; conditions: in vivo
[33] = MRT in Wistar-Han rat at 3 mg/kg, iv measured after 24 hrs by LC-MS/MS analysis; format: ADME, organism-based; conditions: in vivo
[34] = Mutagenicity in Salmonella typhimurium TA1535 at 30 to 5000 ug/plate incubated for 48 hrs in presence of Wistar-Han rat S9 fraction by Ames test; format: toxicity, subcellular; conditions: salmonella enterica subsp. enterica serovar typhimurium, s9, 48 h
PBMC = experiment: Inhibition of LRRK2 in rat PBMC assessed as Ser935 dephosphorylation; format: cell-based
[35] = Unbound drug concentration in guinea pig plasma at 15 mg/kg, iv administered continuously for 20 mins; format: ADME, organism-based, Cavia porcellus; conditions: in vivo
[36] = Toxicity in rhesus monkey assessed as lung type II pneumocyte hypertrophy at 200 to 800 mg/kg, po administered once daily for 7 days; format: organism-based, Macaca mulatta; conditions: in vivo, 168 h, dose 200-800 mg/kg, time 7 day
[37] = MRT in rhesus monkey at 3 mg/kg, iv measured after 24 hrs by LC-MS/MS analysis; format: ADME, organism-based, Macaca mulatta; conditions: in vivo
[38] = Unbound drug concentration in guinea pig plasma at 5 mg/kg, iv administered continuously for 20 mins; format: ADME, organism-based, Cavia porcellus; conditions: in vivo

Nav1.5, sequence (Q14524 whole entry): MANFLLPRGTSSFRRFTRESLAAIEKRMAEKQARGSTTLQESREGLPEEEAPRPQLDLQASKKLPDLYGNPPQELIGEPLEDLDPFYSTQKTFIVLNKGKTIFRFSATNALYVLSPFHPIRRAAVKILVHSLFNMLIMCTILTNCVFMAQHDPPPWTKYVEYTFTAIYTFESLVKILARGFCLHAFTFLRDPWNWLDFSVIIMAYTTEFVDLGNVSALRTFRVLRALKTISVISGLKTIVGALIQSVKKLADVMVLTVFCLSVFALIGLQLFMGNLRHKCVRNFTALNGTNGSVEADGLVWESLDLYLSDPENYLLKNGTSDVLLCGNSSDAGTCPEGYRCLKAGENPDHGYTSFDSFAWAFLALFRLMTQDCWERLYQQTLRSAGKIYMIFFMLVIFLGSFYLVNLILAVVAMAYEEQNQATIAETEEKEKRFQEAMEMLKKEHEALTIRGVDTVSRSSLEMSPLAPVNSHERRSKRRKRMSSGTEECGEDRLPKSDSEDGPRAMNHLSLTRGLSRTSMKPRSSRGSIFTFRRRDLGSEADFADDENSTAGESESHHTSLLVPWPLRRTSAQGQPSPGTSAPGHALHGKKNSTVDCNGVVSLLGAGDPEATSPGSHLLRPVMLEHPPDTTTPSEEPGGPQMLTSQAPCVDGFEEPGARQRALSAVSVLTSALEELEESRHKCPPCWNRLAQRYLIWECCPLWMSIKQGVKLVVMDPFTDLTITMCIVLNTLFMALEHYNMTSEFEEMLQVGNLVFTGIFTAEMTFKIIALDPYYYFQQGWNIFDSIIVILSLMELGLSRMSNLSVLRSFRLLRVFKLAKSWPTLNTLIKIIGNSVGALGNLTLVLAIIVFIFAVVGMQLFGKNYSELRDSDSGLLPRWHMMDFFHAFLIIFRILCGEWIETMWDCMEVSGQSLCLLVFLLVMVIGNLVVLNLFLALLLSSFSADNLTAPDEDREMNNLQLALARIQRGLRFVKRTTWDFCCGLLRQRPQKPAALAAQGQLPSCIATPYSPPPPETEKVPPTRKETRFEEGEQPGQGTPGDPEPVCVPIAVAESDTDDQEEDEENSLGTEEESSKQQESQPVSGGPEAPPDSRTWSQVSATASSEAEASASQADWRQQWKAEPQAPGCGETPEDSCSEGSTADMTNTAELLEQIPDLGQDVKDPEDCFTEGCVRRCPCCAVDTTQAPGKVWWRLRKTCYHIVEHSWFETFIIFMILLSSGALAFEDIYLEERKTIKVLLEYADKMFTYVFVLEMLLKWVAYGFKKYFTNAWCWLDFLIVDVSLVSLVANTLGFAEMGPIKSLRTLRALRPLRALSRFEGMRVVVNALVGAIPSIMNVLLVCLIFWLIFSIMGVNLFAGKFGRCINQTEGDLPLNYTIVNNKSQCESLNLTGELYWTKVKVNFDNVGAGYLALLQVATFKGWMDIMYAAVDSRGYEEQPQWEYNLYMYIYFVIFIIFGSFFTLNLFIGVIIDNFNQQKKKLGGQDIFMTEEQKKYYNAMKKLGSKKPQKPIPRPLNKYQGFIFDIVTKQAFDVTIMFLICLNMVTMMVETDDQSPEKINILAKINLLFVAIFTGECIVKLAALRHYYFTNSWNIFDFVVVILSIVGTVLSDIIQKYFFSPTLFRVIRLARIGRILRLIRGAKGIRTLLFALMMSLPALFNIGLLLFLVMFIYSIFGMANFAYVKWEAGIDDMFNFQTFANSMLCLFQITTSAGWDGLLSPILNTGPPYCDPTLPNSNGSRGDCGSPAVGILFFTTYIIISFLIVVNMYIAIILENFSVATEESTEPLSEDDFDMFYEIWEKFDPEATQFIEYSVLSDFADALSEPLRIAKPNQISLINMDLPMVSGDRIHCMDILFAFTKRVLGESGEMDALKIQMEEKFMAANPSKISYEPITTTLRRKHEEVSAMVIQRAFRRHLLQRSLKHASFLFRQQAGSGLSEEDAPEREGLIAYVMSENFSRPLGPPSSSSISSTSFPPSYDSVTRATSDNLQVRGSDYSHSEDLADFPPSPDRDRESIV
Voltage-gated inwardly rectifying potassium channel KCNH2, sequence (Q12809 whole entry): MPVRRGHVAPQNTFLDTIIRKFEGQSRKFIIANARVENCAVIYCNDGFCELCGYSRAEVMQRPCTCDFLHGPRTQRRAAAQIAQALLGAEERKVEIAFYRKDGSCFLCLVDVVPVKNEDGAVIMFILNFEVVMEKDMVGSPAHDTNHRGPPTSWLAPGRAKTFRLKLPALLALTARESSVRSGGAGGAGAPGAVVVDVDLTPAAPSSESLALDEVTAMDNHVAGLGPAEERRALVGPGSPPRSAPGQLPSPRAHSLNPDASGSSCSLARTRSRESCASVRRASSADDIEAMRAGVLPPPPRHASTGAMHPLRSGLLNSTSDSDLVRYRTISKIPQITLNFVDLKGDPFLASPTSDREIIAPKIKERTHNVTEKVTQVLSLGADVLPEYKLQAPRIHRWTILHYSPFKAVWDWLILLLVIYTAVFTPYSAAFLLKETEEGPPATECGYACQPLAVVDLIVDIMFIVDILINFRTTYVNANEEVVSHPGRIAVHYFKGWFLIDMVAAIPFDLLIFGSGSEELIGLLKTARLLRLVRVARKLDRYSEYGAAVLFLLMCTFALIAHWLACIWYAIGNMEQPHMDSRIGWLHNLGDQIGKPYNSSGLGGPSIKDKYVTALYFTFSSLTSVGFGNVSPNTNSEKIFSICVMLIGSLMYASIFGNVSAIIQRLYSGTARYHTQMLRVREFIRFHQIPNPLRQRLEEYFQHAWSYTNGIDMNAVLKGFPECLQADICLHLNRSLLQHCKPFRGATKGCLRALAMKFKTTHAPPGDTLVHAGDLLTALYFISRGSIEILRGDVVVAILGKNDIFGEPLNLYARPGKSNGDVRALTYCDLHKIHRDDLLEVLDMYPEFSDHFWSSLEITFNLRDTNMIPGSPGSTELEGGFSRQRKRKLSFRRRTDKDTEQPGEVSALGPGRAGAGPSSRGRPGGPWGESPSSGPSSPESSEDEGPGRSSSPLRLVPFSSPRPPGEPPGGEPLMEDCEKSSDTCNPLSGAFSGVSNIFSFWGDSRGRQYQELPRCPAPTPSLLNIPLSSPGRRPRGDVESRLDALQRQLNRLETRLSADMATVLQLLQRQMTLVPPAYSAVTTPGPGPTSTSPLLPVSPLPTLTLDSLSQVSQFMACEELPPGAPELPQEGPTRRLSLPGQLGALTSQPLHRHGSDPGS

C[C@@]1(N2CCN(c3cc4cc(NC(=O)[C@H]5CC56CCOCC6)ncc4cc3Cl)CC2)COC[C@@H]1O
bioavailability [1]: 100%
Activity [2]: Toxic
Activity [3]: Non-Toxic
Activity [4]: Non-Toxic
solubility kinetic at 24 h [5]: 6 µM (≈ 3.01 µg/mL)
inhibition at 30 µM (Nav1.5): 34%
clearance [6]: 11 mL/min/kg
clearance [7]: 22 mL/min/kg
CL [8]: 149 mL/min/kg
Activity [9]: Non-Toxic
Kp uu [10]: 0.3
Activity [11]: Non-Toxic
Activity [12]: Toxic
Activity [13]: Non-Toxic
Activity [14]: Non-Toxic
Activity [15]: Non-Toxic
inhibition (Rattus norvegicus): Dose-Dependent Effect
IC50 [16]: > 60 µM
clearance [17]: 56 mL/min/kg
Activity [18]: Non-Toxic
Activity [19]: Toxic
bioavailability [20]: 9%
AUC at 168 h [21]: 8.1 µM·h
Activity [22]: Non-Toxic
Activity [23]: Non-Toxic
Activity [24]: Non-Toxic
Activity [25]: Non-Toxic
Activity [26]: Toxic
Activity [27]: Toxic
NOAEL at 168 h [28]: 225 mg/kg/day
fraction unbound at 4 h [29]: 0.13
Activity [30]: Non-Toxic
Activity [31]: Non-Toxic
AUC at 168 h [32]: 88 µM·h
MRT [33]: 2.2 h
Activity [34]: Non-Toxic
fIC50 (PBMC): 25 nM
Cp(f) [35]: 5.69 µM
Activity [36]: Toxic
MRT [37]: 3.6 h
Cp(f) [38]: 1.29 µM
